# Measured values: patent US20020049157A1, “Use of proteasome inhibitors for treating cancer, inflammation, autoimmune disease, graft rejection and septic shock” (priority 1998, published 2002)
# Tests used:
# Tonsillar B cells = test: B cell proliferation induced with SAC plus IL-2 (3H-thymidine uptake); type: cell-based, human
# Protocol: Lymphocytes were stimulated with various mitogens as indicated, and LAC at different concentrations was added at the beginning of the cultures. The cells were pulsed with 3H-thymidine between 48 h and 64 h. Samples were in triplicates. All the experiments were performed at least three times and similar results were obtained. Representative results are shown.
# D: Tonsillar B cells stimulated with SAC (1:15,000 dilution) and IL-2 (100 μ/ml).
# The role of proteasome in T cell activation and proliferation was first examined in PBMC, using the proteasome-specific inhibitor LAC. The PBMC were activated with various stimulants. LAC was added to the cells in the beginning of the culture (0 h) along with the stimulants. ^3H-thymidine uptake between 48 h and 64 h of 64 h cultures was used as a parameter for cell proliferation. […] Rather, it likely affects certain downstream events governing a more general process(es) in lymphocyte activation and proliferation.
# Peripheral blood mononuclear cells (PBMC) and tonsillar T cells were prepared as described before (Luo et al., 1992, Transplantation 53:1071; Luo et al., 1993, Clin. & Exp. Immunol. 94:371). The cells were cultured in RPMI 1640 supplemented with 10% FCS, L-glutamine and antibiotics. ^3H-thymidine uptake was carried out as described previously (Luo et al., 1992, supra; Luo et al., 1993, supra).
# Tonsillar T cells [1] = test: T cell viability by trypan blue exclusion; type: cell-based, human; conditions: for decrease of viability compared with cells without LAC: 10 μM LAC, medium or PHA
# Protocol: (§1) Tonsillar T cells (A, B, and D) and Jurkat cells (C and E) were treated with LAC (10 μM for T cells and 6 μM for Jurkat cells). LAC was added at the beginning of the culture or 40 h after T cell activation as indicated. The cells were harvested at the time points as shown. They were evaluated for their viability with trypan blue exclusion (A, B, and C), and for their mode of cell death according to DNA fragmentation (D and E).
# The viability of T cells and Jurkat cells after LAC-treatment was first evaluated with trypan blue exclusion. Resting T cells (T cells in medium) or PHA-stimulated T cells were cultured with 10 μM LAC (LAC added at the beginning of the culture).
# There was a tendency that the activated T cells were more susceptible to LAC than the resting T cells. This became more evident when LAC was added to T cells 40 h after the PHA activation (FIG. 2B). […] On the other hand, the viability of the resting T cells in medium had only a small decrease (from 98% of the control to 87% of the LAC-treated) after 24 h of LAC presence.
# Tonsillar T cells [2] = test: DNA fragmentation (DNA laddering) in T cells; type: cell-based, human
# Protocol: as §1
# We next employed DNA laddering to study the mode of cell death caused by LAC, and the result of this experiment also reflected the degree of cell death after different treatments. […] After 24 h of LAC treatment, the ladders became less discrete, and this probably reflected further DNA breakdown.
# The assay was performed according to a protocol described by Liu et al (Liu et al., 1997, Cell. 89:175) with some modifications. Briefly, 2-6 million cells were re-suspended in 50 μl PBS followed by 300 μl lysis buffer (100 mM Tris-HCl, pH 8.0, 5 mM EDTA, 0.2 M NaCl. 0.2% w/v SDS, and 0.2 mg/ml proteinase K). After overnight incubation at 37° C., 350 μl of 3M NaCl was added to the mixture and cell debris was removed by centrifugation at 13000 g for 20 min at room temperature. DNA in the supernatant was precipitated with an equal volume of 100% ethanol. […]
# Jurkat cells = test: Electron microscopy of Jurkat cells; type: cell-based; conditions: LAC 6 μM; 24 h
# Protocol: E and F: Morphology of Jurkat cell treated with LAC. Jurkat cells were cultured in the absence (E) or presence (F) of LAC (6 μM) for 24 h and were evaluated with EM. Arrows indicate condensed nuclei.
# Electron microscopy was also employed to examine the mode of cell death induced by LAC. The resting T cells (cells cultured in medium, FIG. 3A), activated T cells (40 h after PHA activation, FIG. 3C), and Jurkat cells (FIG. 3E) were all healthy looking. […] The resting T cells treated with LAC (10 μM) for 24 h were still healthy (FIG. 3B).
# T cells and Jurkat cells were examined by electron microscopy as described by Tsao and Duguid (Tsao et al., 1987, Exp. Cell Res. 168:365).
# C57BL/6 spleen cells = test: Mixed lymphocyte culture (MLR), alloantigen-specific response; type: cell-based, mouse; conditions: MLR treated on day 2 with LAC 8 μM for 3 h; restimulated after 8 days
# Protocol: The C57BL/6 spleen cells (H-2^b) were stimulated with mitomycin c-treated BALB/c spleen cells (H-2^d). On day 2 when most of the H-2^d-specific cells were activated, the mixed lymphocyte culture (MLR) was treated with lactacystin (LAC, 8 μM) for 3 h. After wash, the cells were put back in culture for additional 8 days, and then stimulated with either fresh BALB/c or C3H (H-2^k) spleen cells. […] The difference is more pronounced in day three of the culture.
# It is therefore an embodiment of this invention to use proteasome inhibitors, particularly lactacystin in transplantation and autoimmune diseases where certain undesirable activated T cells can be repressed or eliminated and the rest of the T cell population is generally unaffected by such inhibitors.
# Bcl-xL = test: Immunoblotting of Bcl-xL in Bcl-xL transfected Namalwa cells; type: cell-based, human; conditions: lactacystin 6 μM; 6 h
# Protocol: Jurkat cells, wild type Namalwa cells and Bcl-xL transfected Namalwa cells were treated with medium (lanes 1), staurosporine (0.3 μM, lanes 2) and lactacystin (6 μM, lanes 3) for 6 H. The proteins from the mitochondrial fraction of these cells were analyzed by immunoblotting and the amount of Bik, Bcl-xL, Bax, and Bak evaluated. The same membranes were used sequentially and probed with different antibodies against these factors. A nonspecific band recognized by a monoclonal antibody against cytochrome […] (COX) was used as control for even sample loading in the lanes.
structure (smiles),measurement,setting,value
"CC(=O)N[C@@H](CSC(=O)[C@]1([C@@H](O)C(C)C)NC(=O)[C@H](C)[C@@H]1O)C(=O)O [LAC, lactacystin]",inhibition of B cell proliferation (3H-thymidine uptake),Tonsillar B cells; LAC added at 0 h,potently inhibited
same,extent of inhibition of B cell proliferation,Tonsillar B cells; LAC at 5 μM,near-to-maximal inhibition
same,decrease of viability compared with cells without LAC,Tonsillar T cells [1]; 16 h culture,< 12%
same,decrease of viability compared with cells without LAC,Tonsillar T cells [1]; 64 h culture,less than 27%
same,viability (trypan blue exclusion),"Tonsillar T cells [1]; PHA-stimulated T cells, 10 μM LAC added at beginning, 16 h",83%
same,viability (trypan blue exclusion),"Tonsillar T cells [1]; PHA-stimulated T cells, 10 μM LAC added at beginning, 64 h",63%
same,viability of the LAC-treated cell,"Tonsillar T cells [1]; PHA, LAC 10 μM added once initially, at 40 h",> 80%
same,viability of the treated cells,"Tonsillar T cells [1]; PHA, LAC added once at the beginning, at 16 h",83
same,change of viability (trypan blue exclusion),"Tonsillar T cells [1]; activated T cells, LAC added 40 h after PHA, 9 h culture",did not change the viability significantly
same,viability (trypan blue exclusion),"Tonsillar T cells [1]; activated T cells, LAC added 40 h after PHA, additional 24 h culture",46%
same,viability (trypan blue exclusion),"Tonsillar T cells [1]; resting T cells in medium, 10 μM LAC added at beginning, 16 h",92%
same,viability (trypan blue exclusion),"Tonsillar T cells [1]; resting T cells in medium, 10 μM LAC added at beginning, 64 h",79%
same,viability (trypan blue exclusion),"Tonsillar T cells [1]; resting T cells in medium, 24 h of LAC presence",87%
same,DNA breakdown (DNA laddering),"Tonsillar T cells [2]; activated T cells (40 h post PHA), LAC for additional 9 h",clear DNA ladders
same,DNA breakdown (DNA laddering),"Tonsillar T cells [2]; resting T cells, 10 μM LAC, 24 h",no apparent DNA breakdown
same,nuclear condensation by electron microscopy,Jurkat cells,frequently observed
same,response to restimulation with BALB/c cells,C57BL/6 spleen cells,failed to respond to the BALB/c cells
same,response to restimulation with third party C3H cells,C57BL/6 spleen cells,respond well to third party C3H
same,Bcl-xL level in transfected Namalwa cells,Bcl-xL,accumulation of Bcl-xL
